The source of these data is ChEMBL document CHEMBL1128915, “2-cyanopyrrolidides as potent, stable inhibitors of dipeptidyl peptidase IV” (Bioorg Med Chem Lett, 1996).

Some results are limits rather than exact numbers.

System in one data set: not listed separately
Nature of the data set: Half-life in aqueous solution(pH 7.4). The class given is ADME.
The molecule `N#C[C@@H]1CCCN1C(=O)[C@@H](N)C1CCCCC1` showed a half-life of over 48 h.
On to `CC[C@H](C)[C@H](N)C(=O)N1CCC[C@H]1C#N`, for which the half-life is 48 h.
Same read-out and setting: for `CC(C)(C)[C@H](N)C(=O)N1CCC[C@H]1C#N` the value was over 48 h.
On the same count and under the same terms, for `N#C[C@@H]1CCCN1C(=O)[C@@H]1CCCN1` the value was 7.5 h.
`N#C[C@@H]1CCCN1C(=O)[C@@H](N)CCCCN` gave a half-life of 24 h.
On the same count and under the same terms, the figure for `C[C@H](N)C(=O)N1CCC[C@H]1B(O)O` is 0.5 h.
Still for that read-out and setting: for `O=C([C@@H]1CCCN1)N1CCC[C@H]1B(O)O` the value was 1.5 h.

The target in a further data set is Dipeptidyl peptidase 4 (Homo sapiens, UniProt P27487). Nature of the data set: In vitro test for inhibitory activity against human dipeptidyl peptidase IV.
Dipeptidyl peptidase 4, sequence (P27487 whole entry): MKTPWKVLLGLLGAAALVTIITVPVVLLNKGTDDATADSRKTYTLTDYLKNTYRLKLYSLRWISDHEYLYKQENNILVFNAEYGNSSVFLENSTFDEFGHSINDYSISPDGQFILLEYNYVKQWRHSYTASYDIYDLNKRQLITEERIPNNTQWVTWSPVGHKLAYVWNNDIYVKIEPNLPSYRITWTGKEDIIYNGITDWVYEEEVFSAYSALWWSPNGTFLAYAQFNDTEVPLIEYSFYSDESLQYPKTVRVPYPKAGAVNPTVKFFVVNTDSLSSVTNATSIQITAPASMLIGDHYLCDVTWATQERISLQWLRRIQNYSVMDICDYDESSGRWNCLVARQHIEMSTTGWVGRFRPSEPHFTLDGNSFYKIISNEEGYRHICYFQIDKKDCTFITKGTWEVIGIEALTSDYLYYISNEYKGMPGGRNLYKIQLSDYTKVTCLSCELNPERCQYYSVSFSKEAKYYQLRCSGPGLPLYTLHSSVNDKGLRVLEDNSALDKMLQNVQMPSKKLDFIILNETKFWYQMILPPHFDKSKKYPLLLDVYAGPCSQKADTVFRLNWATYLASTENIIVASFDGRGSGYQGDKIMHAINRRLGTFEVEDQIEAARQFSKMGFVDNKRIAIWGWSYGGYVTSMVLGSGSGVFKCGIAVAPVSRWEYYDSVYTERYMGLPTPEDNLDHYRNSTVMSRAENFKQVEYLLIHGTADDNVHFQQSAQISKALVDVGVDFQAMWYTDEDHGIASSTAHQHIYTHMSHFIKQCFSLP
In the case of `NC(C(=O)N1CCCC1)C1CCCC1` (configuration not stated), the Ki amounted to 210 nM.
On the same count and under the same terms, for `CC(C)(C)[C@H](N)C(=O)N1CCCC1` the value was 880 nM; for `O=C([C@H](CO)NCc1ccccc1)N1CCCC1`, 6000 nM; for `NCCCC[C@H](NC(=O)OCc1ccccc1)C(=O)N1CCCC1`, 520 nM.
Molecule `NCCC[C@H](NC(=O)OCc1ccccc1)C(=O)N1CCCC1` showed a Ki of 910 nM.
Molecule `CNC(C(=O)N1CCCC1)[C@H](C)O` (some centres not stated) had a Ki of 900 nM.
On to `N[C@@H](CCC(=O)OCc1ccccc1)C(=O)N1CCCC1`, for which the Ki turned out to be 2700 nM. Against the preceding molecule, the Ki is about 3-fold higher.
On to `N[C@H](C(=O)N1CCCC1)c1ccccc1`, for which the affinity, expressed as Ki, was 5300 nM.
The same measure, in the same setting: for `CCCC[C@H](N)C(=O)N1CCCC1` the value was 1200 nM; for `C[C@H](N)C(=O)N1CCCC1`, 7000 nM; for `N[C@@H](CCC(=O)O)C(=O)N1CCCC1`, 2000 nM.
In turn, `C[C@@H](O)[C@H](N)C(=O)N1CCCC1` registered a Ki of 4900 nM. Compared with the last molecule, the Ki is about 2.5-fold higher.
Molecule `N#C[C@@H]1CCCN1C(=O)[C@@H](N)CCCCN` came in with a Ki of 5.2 nM.
`N[C@@H](CC(=O)O)C(=O)N1CCCC1` registered a Ki of 14500 nM. This Ki is about 2800-fold higher than that of the molecule before.
The same measure, in the same setting: the figure for `O=C([C@@H]1CCCN1)N1CCC[C@H]1B(O)O` is 3 nM.

A word on the half-life: it is the time in which the quantity being followed falls by half. A low value points to fast loss. The Ki is a measure of affinity in units of concentration, obtained from inhibition or displacement. Read a low Ki as higher affinity.
